According to US20230165980A1, “METHODS FOR RADIOLABELING PSMA BINDING LIGANDS AND THEIR KITS” (Novartis AG, priority 2020, published 2023):

Test: API assay stability of the freeze dried kit (external calibration curve)
Assay type: physicochemical
Settings: final formulation kit
Description: Stability tests were performed on the freeze dried product containing the final formulation. […] Kits manufactured with the final formulation, indeed, were stored at different stability conditions (2-8° C.; 25° C. and 40° C.) and were tested at different time points for API-assay, Radiochemical Purity and Radiochemical Stability of the radiolabelled product. Radiochemical Purity and Stability were assessed only eluting IRE Generator which represented the most stressful condition in terms of Radioactive Concentration (Volumic Activity).

O=C(O)CCc1ccc(O)c(CN(CCN(CC(=O)O)Cc2cc(CCC(=O)NCCCCCC(=O)NCCCC[C@H](NC(=O)N[C@@H](CCC(=O)O)C(=O)O)C(=O)O)ccc2O)CC(=O)O)c1 [PSMA-11]
API quantitation, 1. injection (3 months at 2-8° C.): 28.87 µg | API quantitation, 2. injection (3 months at 2-8° C.): 29.21 µg | API quantitation, 3. injection (3 months at 2-8° C.): 28.44 µg | API quantitation, Average (3 months at 2-8° C.): 28.84 µg | API quantitation, 1. injection (3 months at 25° C.): 28.19 µg | API quantitation, 2. injection (3 months at 25° C.): 29.57 µg | API quantitation, 3. injection (3 months at 25° C.): 28.33 µg | API quantitation, Average (3 months at 25° C.): 28.70 µg | API quantitation, 1. injection (3 months at 40° C.): 28.17 µg | API quantitation, 2. injection (3 months at 40° C.): 28.05 µg | API quantitation, 3. injection (3 months at 40° C.): 28.06 µg | API quantitation, Average (3 months at 40° C.): 28.10 µg | API quantitation, 1. injection (6 months at 2-8° C.): 29.79 µg | API quantitation, 2. injection (6 months at 2-8° C.): 29.61 µg | API quantitation, 3. injection (6 months at 2-8° C.): 29.43 µg | API quantitation, Average (6 months at 2-8° C.): 29.61 µg | API quantitation, 1. injection (6 months at 25° C.): 29.35 µg | API quantitation, 2. injection (6 months at 25° C.): 29.31 µg | API quantitation, 3. injection (6 months at 25° C.): 29.06 µg | API quantitation, Average (6 months at 25° C.): 29.24 µg | API quantitation, 1. injection (6 months at 40° C.): 28.81 µg | API quantitation, 2. injection (6 months at 40° C.): 28.87 µg | API quantitation, 3. injection (6 months at 40° C.): 28.98 µg | API quantitation, Average (6 months at 40° C.): 28.89 µg | API quantitation, 1. injection (Release (Manufacturing date)): 28.31 µg | API quantitation, 2. injection (Release (Manufacturing date)): 28.76 µg | API quantitation, 3. injection (Release (Manufacturing date)): 27.40 µg | API quantitation, Average (Release (Manufacturing date)): 28.15 µg
